# According to patent US11718592B2, “Oxadiazole derivative” (Sumitomo Pharma Co., Ltd., priority 2020, dated 2023):
# Where two headings read alike, the source gives them in different places. Marks after values point to notes of the source that are not given here.
# What was measured:
# BALB/c-Scn1a<+/−> mice = assay: Anticonvulsant effect in mouse model of Dravet syndrome with febrile seizures; format: in vivo; conditions: oral; for Difference of the threshold temperature of convulsion from that of the control group: at the dose for anticonvulsive effect, hyperthermia 50 minutes after dosing; for Dose for anticonvulsive effect: dose needed to raise the threshold body temperature for inducing febrile seizures significantly compared with the control group
# Excerpt: This is a test for evaluating the anticonvulsant effect for febrile seizures of the test compounds in a mouse model of Dravet syndrome. In this test, BALB/c-Scn1a<+/−> mice were used (catalog number: RBRC06422; they are available from RIKEN BioResource Research Center via the National BioResource Project). The present mouse model having a mutation in a responsible gene for Dravet syndrome, Scn1A, presents with symptoms similar to febrile seizures caused by hyperthermia which is a symptom in a patient suffering from Dravet syndrome, and can be used as an animal model of spontaneous Dravet syndrome (for reference: the Japan Epilepsy Research Foundation, Annual Report 2015: 26: 69-76). To male mice model of Dravet syndrome (one group: 5-8 mice, body weight: 20-30 g) were orally administered the test compound. 50 minutes later, the mice were put in a chamber warmed with hot bath to evoke hyperthermia, and observed about the development of febrile seizures. Immediately after febrile seizure was developed, the rectal temperature was measured and used as the threshold body temperature for inducing febrile seizures.
# GABA(A) receptors = assay: Evaluation of the potentiating effect on GABA(A) receptors (electrophysiology, GABA(A) receptor expressing cells); format: cell-based; conditions: for Inhibition rate to the increased electric current by adding flumazenil: 2 μM GABA and test compound with 10 μM flumazenil; for The potentiating effect on GABA(A) receptors EC20: concentration giving 20% increase of the current generated by 2 μM GABA
# Experimental: Using GABA(A) receptor expressing cells prepared according to Guideline for Generation of Stable Cell Lines (website of Lonza Japan; Non-patent Literature 4), the present test is done for evaluating the potentiating effect of a drug on GABA(A) receptors based on the electric current raised by GABA. The GABA(A) receptor expressing cells were used in electrophysiological study, wherein the electric current was measured when 2 μM GABA solution and then a mixture of 2 μM GABA and the test compound were added to the cells. […] In addition, the electric current generated by a mixture of 2 μM GABA solution and the test compound with 10 μM flumazenil was measured, and the inhibition rate for the electric current by adding flumazenil was calculated compared to the electric current obtained in the absence of flumazenil.
# Slc: ddy male mice = conditions: mouse, in vivo, po, 1 h
# Experimental: The present test is a test for evaluating whether the test compound may disturb coordinated movement or not. Rotarod is an apparatus equipped with a rotating columnar bar whose diameter is 4 cm, in which a mouse is made to walk on the rotating bar, and the coordinated movement is evaluated from the result of walking (can walk or cannot walk). Slc: ddy male mice (purchased from Japan SLC, Inc., body weight: 20-30 g) were trained 3 hours before the test starts so that they could walk on a rotarod apparatus rotating with a speed of 12 rotations per minute for 5 minutes without falling. Only the mice which can walk in the training are used in the test. The test compound was orally administered to a group consisting of 5 mice. […] To control mice, 0.5% methylcellulose solution was administered as test compound, and the same test was also done. The coordinated movement was evaluated with the average of the five mice's walking time (second).
# male Wister strain rats = assay: Antidepressant effect in rat forced swimming test; format: in vivo; conditions: for antidepressant effect / immobility time (in words): oral; for average rate of deceasing the immobility time per that of the control group: swim 5 minutes an hour later
# Excerpt: The present test can evaluate antidepressant effect of a drug. When a rat is thrown into a water bath from which the rat cannot escape to be made to swim, the rat takes on escape behavior in the beginning and then becomes immobile. Next day, when the rat is thrown into a water bath again, the immobility appears earlier than that of the first trial. The method can evaluate the antidepressant effect of a test compound by using the duration of the immobility time as an indicator of depressive behavior. A day before the test, male Wister strain rats (purchased from Charles River Laboratories Japan, body weight: 260-300 g) were made to swim in a water bath for 15 minutes. On the test day, the test compound was orally administered to the rats (10-12 rats in one group). An hour later, the rats were made to swim again for 5 minutes and each immobility time was measured. In the control group, 0.5% methylcellulose solution as the test compound was administered to the rats which were subjected to the same behavior test. The antidepressant effect was indicated by the average rate of deceasing the immobility time per that of the control group.
# ddY male mice = assay: Test with model produced by subcutaneous injection of pentetrazol (minimum convulsion model, scPTZ); format: in vivo; conditions: 25 mg/kg oral administration
# Experimental: In order to evaluate an antiepileptic drug, in general, a model produced by subcutaneous injection of pentetrazol (minimum convulsion model, scPTZ) is used, which has high clinical predictability. […] In this test, an animal model which expresses generalized absence seizure or myoclonic seizure was used. Test compounds were orally administered to Sic: ddY male mice (purchased from Japan SLC, Inc., 5 mice in each group, body weight 20-30 g). After an hour, pentetrazol (85 mg/kg) was subcutaneously administered. […] To control mice, 0.5% methylcellulose solution was administered, and the same test was done. The results are represented as the number of mice with no convulsion, per 5 mice. The present test was deemed to succeed when 4 mice among 5 mice in the control group developed convulsions.
SMILES,Difference of the threshold temperature of convulsion from that of the control group (BALB/c-Scn1a<+/−> mice) [°C],Dose for anticonvulsive effect (BALB/c-Scn1a<+/−> mice) [mg/kg],Inhibition rate to the increased electric current by adding flumazenil (GABA(A) receptors) [%],The potentiating effect on GABA(A) receptors EC20 (GABA(A) receptors) [µM],average of the five mice's walking time (Slc: ddy male mice; 50 mg/kg) [s],average of the five mice's walking time (Slc: ddy male mice; 100 mg/kg) [s],antidepressant effect / immobility time (in words) (male Wister strain rats),average rate of deceasing the immobility time per that of the control group (male Wister strain rats; oral 3 mg/kg),average rate of deceasing the immobility time per that of the control group (male Wister strain rats; oral 10 mg/kg),average rate of deceasing the immobility time per that of the control group (male Wister strain rats; oral 30 mg/kg),animals exhibiting anticonvulsant action (in words) (ddY male mice),average of the five mice's walking time (Slc: ddy male mice; 25 mg/kg) [s],potentiating effect on GABA(A) receptors (in words) (GABA(A) receptors),"inhibition of the potentiating effect on GABA(A) receptors with flumazenil (in words) (GABA(A) receptors; flumazenil, benzodiazepine antagonist)"
"CN1C(=O)CCC1c1nc(-c2ccc(F)cc2)no1 (single isomer, unassigned) [Example 32]",0.5,25,<0,3.6,180,65.3,significantly decreased the immobility time,25.3*,31.6*,58.9*,,,,
"CCC(CC)(C(N)=O)c1nc(-c2ccc(Cl)cc2)no1 [Example 11, 2-[3-(4-chlorophenyl)-1,2,4-oxadiazol-5-yl]-2-ethylbutanamide]",,,,5.1,,180,,,,,more than half of the animals,,,
"CC(C)(C(N)=O)c1nnc(-c2ccc(Br)cc2)o1 [Example 16, 2-[5-(4-bromophenyl)-1,3,4-oxadiazol-2-yl]-2-methylpropanamide]",,,,>300,,180,,,,,more than half of the animals,,,
"CC(C)(c1noc(-c2ccc(Cl)cc2)n1)S(N)(=O)=O [Example 20, 2-[5-(4-chlorophenyl)-1,2,4-oxadiazol-3-yl]propane-2-sulfonamide]",0.6,100,55,20,,180,,,,,,,,
"CN1C(=O)CCC1(C)c1nc(-c2ccc(F)cc2)no1 (stereo not drawn) [Example 28, 5-[3-(4-fluorophenyl)-1,2,4-oxadiazol-5-yl]-1,5-dimethylpyrrolidin-2-one]",,,24,9.3,180,,,,,,more than half of the animals,,,
"CN1C(=O)CCC1c1nc(-c2ccc(Cl)cc2)no1 (stereo not drawn) [Example 29, 5-[3-(4-chlorophenyl)-1,2,4-oxadiazol-5-yl]-1-methylpyrrolidin-2-one]",0.7,25,7,1.1,146.4,,significantly decreased the immobility time,12.3,29.4*,,,180,,
"CN1C(=O)CCC1c1nc(-c2ccc(Br)cc2)no1 (stereo not drawn) [Example 30, 5-[3-(4-bromophenyl)-1,2,4-oxadiazol-5-yl]-1-methylpyrrolidin-2-one]",,,,,180,,,,,,more than half of the animals,,,
"CN1C(=O)CN=C(c2ccccc2)c2cc(Cl)ccc21 [diazepam, reference compound]",,,93,0.03,,,did not show antidepressant effect,,18.3,,,,has the potentiating effect on GABA(A) receptors,strongly inhibited
